Reference: patent US20230146795A1, “ENHANCEMENT OF ANTI-TUMOR ACTIVITY OF SHP2 INHIBITOR PYRIMIDINONE IN COMBINATION WITH NOVEL CANCER MEDICINES IN CANCERS” (TAIHO PHARMACEUTICAL CO., LTD., priority 2020, published 2023)

How the values were obtained:
Assay type in all cases: cell-based
[1] = tested on: NCI-H358; assay: Anti-proliferation assay (CellTiter-Glo 2.0), combination index, NCI-H358
How it was run: (§1)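 Cells were seeded at 500 cells/well in medium with 10% FBS and exposed to agents at 8 concentrations including 0 nM, for 3 days at 37° C under 5% CO2. Survival was read by CellTiter-Glo 2.0 luminescence, and combination index was determined at each combined concentration.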

[2] = tested on: MV-4-11; assay: Anti-proliferation assay (CellTiter-Glo 2.0), combination index, MV-4-11
Protocol: (§2) Cell lines were obtained from ATCC or Health Science Research Resources Bank.
(§3) 384 well culture plate (781086, Greiner Bio-One International) was used for cell survival rate measurement assay. Each cell lines were collected by ordinary method, then suspended in indicated medium containing 10% fetal bovine serum in table 3. The number of cells seeded per well was set to 500 cells/20 μL. After incubation at 37° C. for 24 hours under 5% CO2, Compound 1 and additional compound having an antitumor effect or a vehicle (DMSO) was added to each well by using D300e Digital Dispenser (Tecan). The concentration of Compound 1 was set to 10 concentrations. The concentration of each anti-cancer reagents set to 8 concentrations including 0 nM. After adding the medicine to the cells, the cells were further incubated at 37° C. for 3 days under 5% CO2. Cell survival rates were calculated by adding 20 μL of CellTiter-Glo(registered trademark) 2. 0 (Promega) solution to each well, incubating the cells at room temperature for 10 minutes, and then measuring the chemiluminescence intensity of each well using a plate reader (ARVO).
(§4) A combination index (CI) value at each combined concentration of the medicines was determined.

[3] = tested on: MKN45; assay: Anti-proliferation assay (CellTiter-Glo 2.0), combination index, MKN45
How it was run: as §1

[4] = tested on: NCI-H23; assay: Anti-proliferation assay (CellTiter-Glo 2.0), combination index, NCI-H23
Protocol: as §2
Each cell lines were collected by ordinary method, then suspended in indicated medium containing 10% fetal bovine serum in table 3. The number of cells seeded per well was set to 500 cells/20 μL. […] The concentration of each anti-cancer reagents set to 8 concentrations including 0 nM. After adding the medicine to the cells, the cells were further incubated at 37° C. for 3 days under 5% CO2. Cell survival rates were calculated by adding 20 μL of CellTiter-Glo(registered trademark) 2. 0 (Promega) solution to each well, incubating the cells at room temperature for 10 minutes, and then measuring the chemiluminescence intensity of each well using a plate reader (ARVO).
as §4

[5] = tested on: RMG-I; assay: Anti-proliferation assay (CellTiter-Glo 2.0), combination index, RMG-I
Protocol: as §2, §3, §4

[6] = tested on: RT4; assay: Anti-proliferation assay (CellTiter-Glo 2.0), combination index, RT4
How it was run: as §1

[7] = Compound 1 13.7 nmol/L + Abemaciclib 41.2 nmol/L, molar ratio 1:3
[8] = Compound 1 41.2 nmol/L + Abemaciclib 123 nmol/L, molar ratio 1:3
[9] = Compound 1 123 nmol/L + Abemaciclib 370 nmol/L, molar ratio 1:3
[10] = Compound 1 370 nmol/L + Abemaciclib 1110 nmol/L, molar ratio 1:3
[11] = Compound 1 1110 nmol/L + Abemaciclib 3330 nmol/L, molar ratio 1:3
[12] = Compound 1 3330 nmol/L + Abemaciclib 10000 nmol/L, molar ratio 1:3
[13] = Compound 1 4.57 nmol/L + Abemaciclib 123 nmol/L, molar ratio 1:27
[14] = Compound 1 13.7 nmol/L + Abemaciclib 370 nmol/L, molar ratio 1:27
[15] = Compound 1 41.2 nmol/L + Abemaciclib 1110 nmol/L, molar ratio 1:27
[16] = Compound 1 123 nmol/L + Abemaciclib 3330 nmol/L, molar ratio 1:27
[17] = combination effect, Compound 1 + Abemaciclib, molar ratio 1:27
[18] = Compound 1 1.52 nmol/L + Abemaciclib 41.2 nmol/L, molar ratio 1:27
[19] = Compound 1 41.2 + combination drug 41.2 nmol/L (1:1)
[20] = Compound 1 123 + combination drug 123 nmol/L (1:1)
[21] = Compound 1 370 + combination drug 370 nmol/L (1:1)
[22] = Compound 1 1110 + combination drug 1110 nmol/L (1:1)
[23] = Compound 1 3330 + combination drug 3330 nmol/L (1:1)
[24] = Compound 1 13.7 + combination drug 370 nmol/L (1:27)
[25] = Compound 1 41.2 + combination drug 1110 nmol/L (1:27)
[26] = Compound 1 123 + combination drug 10000 nmol/L (1:81)
[27] = Compound 1:combination drug molar ratio 1:81
[28] = Compound 1 123 + combination drug 370 nmol/L (1:3)
[29] = Compound 1 370 + combination drug 1110 nmol/L (1:3)
[30] = Compound 1 1110 + combination drug 3330 nmol/L (1:3)
[31] = Compound 1 3330 + combination drug 10000 nmol/L (1:3)
[32] = Compound 1:combination drug molar ratio 1:3
[33] = Compound 1 41.2 + combination drug 111 nmol/L (1:2.7)
[34] = Compound 1 123 + combination drug 333 nmol/L (1:2.7)
[35] = Compound 1 370 + combination drug 1000 nmol/L (1:2.7)
[36] = Compound 1 1110 + combination drug 3000 nmol/L (1:2.7)
[37] = Compound 1 1.52 + combination drug 4.12 nmol/L (1:2.7)
[38] = Compound 1 13.7 + combination drug 37.0 nmol/L (1:2.7)
[39] = Compound 1 4.57 + combination drug 111 nmol/L (1:24)
[40] = Compound 1 13.7 + combination drug 333 nmol/L (1:24)
[41] = Compound 1 41.2 + combination drug 1000 nmol/L (1:24)
[42] = Compound 1:combination drug molar ratio 1:2.7
[43] = Compound 1 13.7 + combination drug 111 nmol/L (1:8.1)
[44] = Compound 1 41.2 + combination drug 333 nmol/L (1:8.1)
[45] = Compound 1 123 + combination drug 1000 nmol/L (1:8.1)
[46] = Compound 1 4.57 + combination drug 1.37 nmol/L (1:0.3)
[47] = Compound 1 13.7 + combination drug 4.12 nmol/L (1:0.3)
[48] = Compound 1 41.2 + combination drug 12.3 nmol/L (1:0.3)
[49] = Compound 1 123 + combination drug 37.0 nmol/L (1:0.3)
[50] = Compound 1 370 + combination drug 111 nmol/L (1:0.3)
[51] = Compound 1 4.57 + combination drug 123 nmol/L (1:27)
[52] = Compound 1 370 + combination drug 10000 nmol/L (1:27)
[53] = Compound 1 13.7 + combination drug 41.2 nmol/L (1:3)
[54] = Compound 1 41.2 + combination drug 123 nmol/L (1:3)
[55] = Compound 1 41.2 + combination drug 3330 nmol/L (1:81)
[56] = Compound 1 13.7 + combination drug 123 nmol/L (1:9)
[57] = Compound 1 41.2 + combination drug 370 nmol/L (1:9)
[58] = Compound 1 123 + combination drug 1110 nmol/L (1:9)

CCN1CCN(Cc2ccc(Nc3ncc(F)c(-c4cc(F)c5nc(C)n(C(C)C)c5c4)n3)nc2)CC1 [Abemaciclib]
CI [1, 7]: 0.638
Fa [1, 7]: 0.1857
CI [1, 8]: 0.337
Fa [1, 8]: 0.3529
CI [1, 9]: 0.187
Fa [1, 9]: 0.5769
CI [1, 10]: 0.189
Fa [1, 10]: 0.7183
CI [1, 11]: 0.455
Fa [1, 11]: 0.7441
CI [1, 12]: 0.025
Fa [1, 12]: 0.9724
CI [2, 13]: 0.592
Fa [2, 13]: 0.5416
CI [2, 14]: 0.494
Fa [2, 14]: 0.8419
CI [2, 15]: 0.654
Fa [2, 15]: 0.9407
CI [2, 16]: 0.951
Fa [2, 16]: 0.9781
Description [2, 17]: Synergy (0.3-0.7)
CI [3, 13]: 0.665
Fa [3, 13]: 0.1096
CI [3, 15]: 0.647
Fa [3, 15]: 0.5496
CI [3, 16]: 0.698
Fa [3, 16]: 0.7785
Description [3, 17]: Synergy (0.3-0.7)
CI [4, 10]: 0.292
Fa [4, 10]: 0.3181
CI [4, 11]: 0.420
Fa [4, 11]: 0.5212
CI [4, 12]: 0.031
Fa [4, 12]: 0.9964
CI [5, 18]: 0.724
Fa [5, 18]: 0.1493
CI [5, 13]: 0.606
Fa [5, 13]: 0.2479
CI [5, 14]: 0.357
Fa [5, 14]: 0.4570
CI [5, 15]: 0.455
Fa [5, 15]: 0.5937
CI [5, 16]: 0.830
Fa [5, 16]: 0.6711
Description [5, 17]: Synergy (0.3-0.7)

CN(C)C/C=C/C(=O)Nc1cc2c(Nc3ccc(F)c(Cl)c3)ncnc2cc1O[C@H]1CCOC1 [Afatinib]
CI [1, 19]: 0.143
Fa [1, 19]: 0.4605
CI [1, 20]: 0.264
Fa [1, 20]: 0.5395
CI [1, 21]: 0.426
Fa [1, 21]: 0.6382
CI [1, 22]: 0.686
Fa [1, 22]: 0.7270
CI [1, 23]: 0.526
Fa [1, 23]: 0.8696
Fa [2, 24]: 0.6791
Fa [2, 25]: 0.9244
CI [6, 26]: 0.471
Fa [6, 26]: 0.9986
Description (combinatory effect by CI) [6, 27]: Synergy (0.3-0.7)
CI [4, 28]: 0.776
Fa [4, 28]: 0.1325
CI [4, 29]: 0.397
Fa [4, 29]: 0.3961
CI [4, 30]: 0.400
Fa [4, 30]: 0.8058
CI [4, 31]: 0.471
Fa [4, 31]: 0.9563
Description (combinatory effect by CI) [4, 32]: Synergy (0.3-0.7)

COc1cc(N2CCC(N3CCN(C)CC3)CC2)ccc1Nc1ncc(Cl)c(Nc2ccccc2P(C)(C)=O)n1 [Brigatinib]
CI [1, 33]: 0.885
Fa [1, 33]: 0.3039
CI [1, 34]: 0.293
Fa [1, 34]: 0.6017
CI [1, 35]: 0.506
Fa [1, 35]: 0.7788
CI [1, 36]: 0.871
Fa [1, 36]: 0.9063
CI [2, 37]: 0.844
Fa [2, 37]: 0.3537
CI [2, 38]: 0.430
Fa [2, 38]: 0.8161
CI [2, 33]: 0.286
Fa [2, 33]: 0.9418
CI [2, 34]: 0.503
Fa [2, 34]: 0.9637
CI [2, 35]: 0.933
Fa [2, 35]: 0.9768
CI [2, 36]: 0.966
Fa [2, 36]: 0.9918
CI [6, 39]: 0.536
Fa [6, 39]: 0.2537
CI [6, 40]: 0.558
Fa [6, 40]: 0.3969
CI [6, 41]: 0.459
Fa [6, 41]: 0.6106
Description (combinatory effect by CI) ([6]; Compound 1:combination drug molar ratio 1:24): Synergy (0.3-0.7)
CI [4, 33]: 0.689
Fa [4, 33]: 0.0998
CI [4, 34]: 0.353
Fa [4, 34]: 0.2711
CI [4, 35]: 0.447
Fa [4, 35]: 0.5739
CI [4, 36]: 0.614
Fa [4, 36]: 0.8319
Description (combinatory effect by CI) [4, 42]: Synergy (0.3-0.7)
CI [5, 43]: 0.462
Fa [5, 43]: 0.2251
CI [5, 44]: 0.493
Fa [5, 44]: 0.4905
CI [5, 45]: 0.963
Fa [5, 45]: 0.6133
Description (combinatory effect by CI) ([5]; Compound 1:combination drug molar ratio 1:8.1): Synergy (0.3-0.7)

C[C@@H](Oc1cc(-c2cnn(C3CCNCC3)c2)cnc1N)c1c(Cl)ccc(F)c1Cl [Crizotinib]
CI [4, 30]: 0.939
Fa [4, 30]: 0.5445
CI [4, 31]: 0.765
Fa [4, 31]: 0.8672

CCc1nc(C(N)=O)c(Nc2ccc(N3CCC(N4CCN(C)CC4)CC3)c(OC)c2)nc1NC1CCOCC1 [Gilteritinib]
CI [2, 46]: 0.817
Fa [2, 46]: 0.5753
CI [2, 47]: 0.235
Fa [2, 47]: 0.8986
CI [2, 48]: 0.189
Fa [2, 48]: 0.9647
CI [2, 49]: 0.354
Fa [2, 49]: 0.9763
CI [2, 50]: 0.862
Fa [2, 50]: 0.9802
CI [4, 34]: 0.540
Fa [4, 34]: 0.3005
CI [4, 35]: 0.666
Fa [4, 35]: 0.6542
Description (combinatory effect by CI) [4, 42]: Synergy (0.3-0.7)

COC(=O)c1ccc2c(c1)NC(=O)/C2=C(\Nc1ccc(N(C)C(=O)CN2CCN(C)CC2)cc1)c1ccccc1 [Nintedanib]
CI [1, 51]: 0.837
Fa [1, 51]: 0.0649
CI [1, 24]: 0.576
Fa [1, 24]: 0.1639
CI [1, 25]: 0.580
Fa [1, 25]: 0.3485
CI [1, 52]: 0.858
Fa [1, 52]: 0.9756
Description (combinatory effect by CI) ([1]; Compound 1:combination drug molar ratio 1:27): Synergy (0.3-0.7)
CI [2, 53]: 0.479
Fa [2, 53]: 0.7111
CI [2, 54]: 0.370
Fa [2, 54]: 0.9278
CI [2, 28]: 0.706
Fa [2, 28]: 0.9603
CI [2, 29]: 0.617
Fa [2, 29]: 0.9933
CI [2, 30]: 0.770
Fa [2, 30]: 0.9982
Description (combinatory effect by CI) [2, 32]: Synergy (0.3-0.7)
CI [3, 55]: 0.925
Fa [3, 55]: 0.5044
CI [3, 26]: 0.418
Fa [3, 26]: 0.8817
Description (combinatory effect by CI) [3, 27]: Synergy (0.3-0.7)
CI [5, 56]: 0.772
Fa [5, 56]: 0.2678
CI [5, 57]: 0.477
Fa [5, 57]: 0.4576
CI [5, 58]: 0.683
Fa [5, 58]: 0.6821
Description (combinatory effect by CI) ([5]; Compound 1:combination drug molar ratio 1:9): Synergy (0.3-0.7)
